From patent US8137907B2, “Orthotopic and genetically tractable non-human animal model for liver cancer and the uses thereof” (Cold Spring Harbor Laboratory, priority 2005, dated 2012)

Tested on: subcutaneous liver tumor of genetic constellation p53−/−+Akt-over expression
Assay: Subcutaneous liver cancer model, evaluation of tumor therapy (FIG. 7)
Type: in vivo, mouse
Description: FIG. 7: An example of subcutaneous liver cancer model of this invention on the genetic constellation p53−/−+Akt-over expression and its uses in evaluating tumor therapy. Akt is an […] that is activated in many cancers and may promote drug resistance in vitro (Mayo et al., “PTEN protects p53 from Mdm2 and sensitizes cancer cells to chemotherapy,” J. Biol. Chem. 277: 5484-5489 (2002)).
Most preferably, the therapies are used and evaluated in combination. […] The tumor embodied in FIG. 2 can also be treated with Rapamycin, a targeted therapy that inhibits the mammalian target of rapamycin (mTOR). […] In combination, however, as depicted in FIG. 7, the two therapies control tumor growth.

For `Nc1ccn([C@@H]2O[C@H](CO)[C@@H](O)C2(F)F)c(=O)n1` [Gemcitabine], the tumor growth was “virtually no effect on tumor growth”.
